Test results as given in patent US10597620B2, “Taste modifiers comprising a chlorogenic acid” (GIVAUDAN SA, priority 2001, dated 2020).

Experiment: Flavorist panel evaluation of aged artificially sweetened beverage with added chlorogenic acid
Type: in vivo
Details: final concentration 0.003% w/v; compared to untreated beverage; six member panel of trained flavorists
Description: An artificially sweetened beverage is prepared by mixing 1.4 g aspartame, 0.9 g acesulfame K, 6 ml sodium benzoate (25%^w/v in water), 1.3 ml phosphoric acid (85%^w/v), and 0.5 ml citric acid (50%^w/v in water). The volume of the mixture is adjusted to 1000 ml with water. The beverage mixture is aged for three weeks at 34° C.
A 2.8%^w/w solution of a commercially available synthetic chlorogenic acid (>95% pure (1,3,4,5-tetrahydroxy-cyclohexanecarboxylic acid 3-[3,4-dihydroxycinnamate]), Sigma Chemical Co., St. Louis, Mo.), in water, pH 5.6, is added to a portion of the aged beverage to a final concentration of 0.003%^w/v. The beverage containing chlorogenic acid is evaluated and compared to the untreated beverage by a six member panel of trained flavorists. The beverage containing the commercial chlorogenic acid is judged by the panel to display markedly less of the metallic, slightly bitter aftertaste found in the aged artificially sweetened beverage.
To another portion of the artificially sweetened beverage prepared as described in the first paragraph of Example 6, an aqueous solution of chlorogenic acid from the powdered extract of green coffee beans is added to a final concentration of 0.003%^w/v chlorogenic acid. This beverage is evaluated by the same flavorist panel as described in Example 6. […]

O=C(C=Cc1ccc(O)c(O)c1)OC1CC(O)(C(=O)O)CC(O)C1O (stereo not shown) [synthetic chlorogenic acid, 1,3,4,5-tetrahydroxy-cyclohexanecarboxylic acid 3-[3,4-dihydroxycinnamate]]
metallic, slightly bitter aftertaste found in the aged artificially sweetened beverage: markedly less
